Where “and” joins values, the source holds several entries; their conditions need not be identical. Equal values may be shown once. Read-outs that look alike come from different tables or passages of the source. Square brackets hold non-standard residues; d marks the D form. Peptide text beside a SMILES is read from it. * marks the point of attachment. NH(4-NH2-anthraquinon-1-yl) = Nc1ccc(N*)c2c1C(=O)c1ccccc1C2=O; Cha = N[C@@H](CC1CCCCC1)C(=O)O; Abu = CC[C@H](N)C(=O)O
Assays:
Assay type in all cases: cell-based, human
[1] = system: Hep3B (hepatocellular carcinoma cell line)
Experimental: (§1) IC50 values of various potential HCV ECTA compounds (5761-5768) were determined using CCD 18co (normal colon epithelial cells), Det551 (skin fibroblasts), MCF7TDX (Tomudex resistant breast carcinoma cell line), HepG2 and Hep3B (hepatocellular carcinoma cell lines). Compound 5759 mimics the “released toxin” and serves as a positive control. IC50=the concentration of HCV ECTA compound that inhibits cellular growth by 50%.
(§2) Normal human colon epithelial cells (CCD18co), skin fibroblasts (Det551) Hepatocellular carcinoma cell lines (Hep3B and HepG2), breast cancer cell line (MCF7) and fibrosarcoma cell line (HT1080) were all purchased from the American Type Culture Collection (ATCC; Rockville Md.). MCF7TDX, human breast carcinoma cells resistant to 2 μM Tomudex™ have been described (ref. 98). Cells were cultured at 37° C. in 95% humidified air/5% CO2 in RPMI 1640 culture medium containing 10% fetal calf serum (Life Technologies) and penicillin/streptomycin/fungizone. MCF7TDX cells were maintained continuously in 2 μM Tomudex™. Normal cells were passaged a maximum of 15 times to avoid senescence.
(§3) The cytotoxic activity of various candidate prototoxophores was assessed by determining the IC50 value (concentration that inhibits cellular growth by 50%) in cellular proliferation assays and compared with the results obtained using the 5759 toxophore. Exponentially growing cells were transferred at a density of 1000 to 5500 cells per well to a 96 well tissue culture plate and allowed to attach for 24 hr. HCV ECTA compounds were applied in duplicate half log serial dilutions. After an additional 72 hr incubation, surviving adherent cells were washed once with PBS and stained with 0.5% crystal violet in methanol. Sorenson's buffer (0.025 M sodium citrate, 0.025 M citric acid in 50% ethanol) was added to each well and absorbance at 540 nm was monitored (absorbance at 540 nm correlates with cell survival; see refs. 103 to 105). Semi-adherent or non-adherent cells were stained with CYQUANT stain according to the protocol provided with the cell proliferation assay kit (C-7026; Molecular Probes; Eugene Oreg.). Fluorescence (485 nm excitation, 535 nm emission) was monitored. IC50 values were derived from sigmoid curves fit according to the Hill inhibitory Emax model (ref. 106).
(§4) Cells were treated with compounds 5759, 5762 or 5763 for 15 hours. After removal of the compounds, the cells were washed, incubated for a total of 72 hours and IC50 values were determined. IC50=the concentration of HCV ECTA compound that inhibits cellular growth by 50%.

[2] = system: HepG2 (hepatocellular carcinoma cell line)
Experimental: as §1, §2, §3, §4

[3] = system: CCD18co (normal colon epithelial cells)
Experimental: as §1, §2, §3, §4

[4] = system: Det551 (skin fibroblasts)
Experimental: as §1, §2, §3
(§5) Det551 or MCF7TDX cells were treated with compounds 5759, 5761, 5763 and 5767 for 2, 6, 12, 24 and 72 hours. After the indicated times the compounds were removed, the cells were washed, incubated for a total of 72 hours and IC50 values were determined. IC50=the concentration of HCV ECTA compound that inhibits cellular growth by 50%.
as §4

[5] = system: MCF7TDX (Tomudex resistant breast carcinoma cell line)
Experimental: as §1, §2, §3, §5, §4

[6] = 72 hr incubation, read-out: IC50 (concentration that inhibits cellular growth by 50%)
[7] = HepG2, 72 hr incubation, read-out: IC50 (concentration that inhibits cellular growth by 50%)
[8] = Det551, 72 hr incubation, read-out: IC50 (concentration that inhibits cellular growth by 50%)
[9] = 15 hours exposure, washed, total 72 hours, read-out: IC50 after 15 hour of drug exposure
[10] = HepG2, 15 hours exposure, washed, total 72 hours, read-out: IC50 after 15 hour of drug exposure
[11] = MCF7/TDX, 2 h exposure, washed, total 72 hours, read-out: IC50 after various times of drug exposure
[12] = MCF7/TDX, 6 h exposure, washed, total 72 hours, read-out: IC50 after various times of drug exposure
[13] = MCF7/TDX, 12 h exposure, washed, total 72 hours, read-out: IC50 after various times of drug exposure
[14] = MCF7/TDX, 24 h exposure, washed, total 72 hours, read-out: IC50 after various times of drug exposure
[15] = MCF7/TDX, 72 h exposure, read-out: IC50 after various times of drug exposure
[16] = MCF7TDX, 15 hours exposure, washed, total 72 hours, read-out: IC50 after 15 hour of drug exposure
[17] = MCF7TDX, 72 hr incubation, read-out: IC50 (concentration that inhibits cellular growth by 50%)
[18] = Det551, 2 h exposure, washed, total 72 hours, read-out: IC50 after various times of drug exposure
[19] = Det551, 6 h exposure, washed, total 72 hours, read-out: IC50 after various times of drug exposure
[20] = Det551, 12 h exposure, washed, total 72 hours, read-out: IC50 after various times of drug exposure
[21] = Det551, 15 hours exposure, washed, total 72 hours, read-out: IC50 after 15 hour of drug exposure
[22] = Det551, 24 h exposure, washed, total 72 hours, read-out: IC50 after various times of drug exposure
[23] = Det551, 72 h exposure, read-out: IC50 after various times of drug exposure

SMILES | IC50 [1, 6] | IC50 [2, 7] | IC50 [3, 6] | IC50 [4, 8] | IC50 [1, 9] [µM] | IC50 [2, 10] [µM] | IC50 [3, 9] [µM] | IC50 [5, 11] [µM] | IC50 [5, 12] [µM] | IC50 [5, 13] [µM] | IC50 [5, 14] [µM] | IC50 [5, 15] [µM] | IC50 [5, 16] [µM] | IC50 [5, 17] [µM] | IC50 [4, 18] [µM] | IC50 [4, 19] | IC50 [4, 20] | IC50 [4, 21] [µM] | IC50 [4, 22] [µM] | IC50 [4, 23] [µM]
CC(=O)N[C@@H](CC(=O)O)C(=O)N[C@@H](CCC(=O)O)C(=O)N1CCC[C@H]1C(=O)N[C@@H](CC(C)C)C(=O)N[C@@H](C)C(=O)N[C@@H](CS)C(=O)N[C@@H](CO)C(=O)NCC(=O)NCC(=O)Nc1ccc(N)c2c1C(=O)c1ccccc1C2=O [Compound 5765, Acetyl-Asp-Glu-Pro-Leu-Ala-Cys-Ser-Gly-Gly-toxin] (Ac-DEPLACSGG-{NH(4-NH2-anthraquinon-1-yl)}) | 25 µM and 26 µM | 18 µM and 21 µM | 28 µM and 33 µM and 38 µM | 15 µM and 16 µM | – | – | – | – | – | – | – | – | – | – | – | – | – | – | – | –
CC(=O)N[C@@H](CC(=O)O)C(=O)N[C@@H](CCC(=O)O)C(=O)N[C@H](C(=O)N[C@H](C(=O)N1CCC[C@H]1C(=O)N[C@@H](CS)C(=O)N[C@@H](CO)C(=O)NCC(=O)NCC(=O)Nc1ccc(N)c2c1C(=O)c1ccccc1C2=O)[C@@H](C)O)C(C)C [Compound 5763, Acetyl-Asp-Glu-Val-Thr-Pro-Cys-Ser-Gly-Gly-toxin] (Ac-DEVTPCSGG-{NH(4-NH2-anthraquinon-1-yl)}) | – | – | – | 17 µM | > 150 | > 150 | 112 | > 150 | > 150 | 116 | 32 | 7 | 146 | 6 | > 150 | 120 µM | 84 µM | 131 | 48 | 17
CC[C@H](NC(=O)[C@@H]1CCCN1C(=O)[C@@H](NC(=O)[C@@H](NC(=O)[C@H](CCC(=O)O)NC(=O)[C@H](CC(=O)O)NC(C)=O)C(C)C)[C@@H](C)O)C(=O)N[C@@H](CO)C(=O)NCC(=O)NCC(=O)Nc1ccc(N)c2c1C(=O)c1ccccc1C2=O [Compound 5768, Acetyl-Asp-Glu-Val-Tbr-Pro-ABA-Ser-Gly-Gly-toxin] (Ac-DEVTP[Abu]SGG-{NH(4-NH2-anthraquinon-1-yl)}) | – | 24 µM | 32 µM | – | – | – | – | – | – | – | – | – | – | 14 | – | – | – | – | – | –
CC[C@H](NC(=O)[C@H](CC(C)C)NC(=O)[C@@H](NC(=O)[C@H](C)NC(=O)[C@H](CCC(=O)O)NC(=O)[C@H](CC(=O)O)NC(C)=O)C(C)C)C(=O)N[C@@H](CO)C(=O)NCC(=O)NCC(=O)Nc1ccc(N)c2c1C(=O)c1ccccc1C2=O [Compound 5767, Acetyl-Asp-Glu-Ala-Val-Leu-ABA-Ser-Gly-Gly-toxin] (Ac-DEAVL[Abu]SGG-{NH(4-NH2-anthraquinon-1-yl)}) | – | 13.8 µM | 13.2 µM | 5.1 µM and 8 µM | – | – | – | – | – | – | – | – | – | 8 | > 150 | 13 µM | 11 µM | – | 11 | 8
CC[C@H](NC(=O)[C@H](CC1CCCCC1)NC(=O)[C@H](CCC(=O)O)NC(=O)[C@H](Cc1ccccc1)NC(=O)[C@H](CCC(=O)O)NC(=O)[C@H](CC(=O)O)NC(C)=O)C(=O)N[C@@H](CO)C(=O)NCC(=O)NCC(=O)Nc1ccc(N)c2c1C(=O)c1ccccc1C2=O [Compound 5766, Acetyl-Asp-Glu-Phe-Glu-Cha-ABA-Ser-Gly-Gly-toxin] (Ac-DEFE[Cha][Abu]SGG-{NH(4-NH2-anthraquinon-1-yl)}) | – | 24.5 µM | 10.2 µM | 5.3 µM | – | – | – | – | – | – | – | – | – | 8.5 | – | – | – | – | – | –
CC(=O)N[C@@H](CC(=O)O)C(=O)N[C@@H](CCC(=O)O)C(=O)N[C@H](C(=O)N[C@H](C(=O)N1CCC[C@H]1C(=O)N[C@@H](CS)C(=O)N[C@@H](CO)C(=O)NCC(=O)NCC(=O)Nc1ccc(N)c2c1C(=O)c1ccccc1C2=O)C(C)C)C(C)C [Compound 5761, Acetyl-Asp-Glu-Val-Val-Pro-Cys-Ser-Gly-Gly-toxin] (Ac-DEVVPCSGG-{NH(4-NH2-anthraquinon-1-yl)}) | – | 51.1 µM | 24.4 µM | – | – | – | – | > 150 | > 150 | 89 | 28 | 5 | – | – | > 150 | > 150 µM and 126 µM | > 150 µM and 88 µM | – | – | –
CC(=O)N[C@@H](CC(=O)O)C(=O)N[C@@H](CCC(=O)O)C(=O)N[C@@H](C)C(=O)N[C@H](C(=O)N[C@@H](CC(C)C)C(=O)N[C@@H](CS)C(=O)N[C@@H](CO)C(=O)NCC(=O)NCC(=O)Nc1ccc(N)c2c1C(=O)c1ccccc1C2=O)C(C)C [Compound 5762, Acetyl-Asp-Glu-Ala-Val-Leu-Cys-Ser-Gly-Gly-toxin] (Ac-DEAVLCSGG-{NH(4-NH2-anthraquinon-1-yl)}) | – | – | – | – | > 150 | > 150 | 77 | – | – | – | – | – | 132 | – | – | – | – | 46 | – | –

— patent publication US20030114385A1, “Viral enzyme activated prototoxophores and use of same to treat viral infections” (priority 2001, published 2003)
